Data taken from patent US9255101B2 (BIOPROJECT, priority 2012, dated 2016).
Counter-ions that a name gives are not always drawn.

Legend:
human H4 receptor [1] = target: T1, human H4 receptor (Homo sapiens, UniProt Q9H3N8); test: biochemical
human H4 receptor [2] = target: T1, human H4 receptor; test: biochemical; remark: listed apart in the source
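Throughout, for IC50: membranes from SH-SY5Y cells with stable human H4 receptor expression, incubated with GDP 10 µM, radioactivity retained on filters counted by liquid scintillation.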
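Throughout, for Ki: radioligand displacement of a [3H]-labelled ligand from membranes of CHO cells stably expressing human H4 receptor, bound radioactivity counted on filters by liquid scintillation.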

| Structure (SMILES) | melting point [°C] | Ki (human H4 receptor [1]) [nM] | IC50 (human H4 receptor [2]) [nM] |
| --- | --- | --- | --- |
| CN1CCC(OC2c3ccccc3CCn3cc(I)nc32)CC1 (stereo not drawn) [Example 2, 2-iodo-4-(1-methylpiperidin-4-yloxy)-9,10-dihydro-4H-3,10a-diaza-benzo[f]azulene] | 126 | < 300 | – |
| Cc1c(-c2ccc(SCc3ccco3)cc2)nc2n1CCc1ccccc1C2OC1CCN(C)CC1 (stereo not drawn) [Example 167, 2-[4-(furan-2-ylmethylsulfanyl)-phenyl]-1-methyl-4-(1-methylpiperidin-4-yloxy)-9,10-dihydro-4H-3,10a-diaza-benzo[f]azulene oxalate] | – | < 30 | < 30 |
| CN1CCC(OC2c3ccccc3CCn3cc(-c4ccc(CN5CCCCCC5=O)cc4)nc32)CC1 (stereo not drawn) [Example 188, 1-{4-[4-(1-methylpiperidin-4-yloxy)-9,10-dihydro-4H-3,10a-diaza-benzo[f]azulen-2-yl]benzyl}-azepan-2-one] | – | < 300 | < 300 |
| Cc1c(-c2ccc(NC(=S)NC(C)C)cc2)nc2n1CCc1ccccc1C2OC1CCN(C)CC1 (stereo not drawn) [Example 206, 1-isopropyl-3-{4-[1-methyl-4-(1-methylpiperidin-4-yloxy)-9,10-dihydro-4H-3,10a-diazabenzo[f]azulen-2-yl]-phenyl}-thiourea] | – | < 30 | < 30 |
| CN1CCC(OC2c3ccccc3CCn3c2nc(I)c3I)CC1 (stereo not drawn) [Example 219, 1,2-diiodo-4-(1-methylpiperidin-4-yloxy)-9,10-dihydro-4H-3,10a-diaza-benzo[f]azulene] | – | < 30 | < 30 |
| Cc1c(C(=O)NCc2ccccc2)nc2n1CCc1ccccc1C2OC1CCN(C)CC1 (stereo not drawn) [Example 222, 1-methyl-4-(1-methylpiperidin-4-yloxy)-9,10-dihydro-4H-3,10a-diaza-benzo[f]azulene-2-carboxylic acid benzylamide] | 161 | – | – |
| Cc1c(C=CC(C)(C)C)nc2n1CCc1ccccc1C2OC1CCN(C)CC1 (stereo not drawn) [Example 225, 2-(3,3-dimethyl-but-1-enyl)-1-methyl-4-(1-methylpiperidin-4-yloxy)-9,10-dihydro-4H-3,10a-diaza-benzo[f]azulene] | – | < 30 | < 30 |
| Cc1c(C2=CCCCC2)nc2n1CCc1ccccc1C2OC1CCN(C)CC1 (stereo not drawn) [Example 226, 2-cyclohex-1-enyl-1-methyl-4-(1-methylpiperidin-4-yloxy)-9,10-dihydro-4H-3,10a-diaza-benzo[f]azulene] | – | < 30 | < 30 |
| CN1CCC(OC2c3ccccc3CCn3c2nc(-c2ccccc2)c3C(N)=O)CC1 (stereo not drawn) [Example 254, 4-(1-methylpiperidin-4-yloxy)-2-phenyl-9,10-dihydro-4H-3,10a-diaza-benzo[f]azulene-1-carboxylic acid amide] | – | < 300 | < 300 |
| CN1CCC(OC2c3ccccc3CCn3c2nc(-c2ccccc2)c3C(F)(F)F)CC1 (stereo not drawn) [Example 255, 4-(1-methylpiperidin-4-yloxy)-2-phenyl-1-trifluoromethyl-9,10-dihydro-4H-3,10a-diaza-benzo[f]azulene] | – | < 30 | < 300 |
| C=C(C)Cc1nc2n(c1C#N)CCc1ccccc1C2OC1CCN(C)CC1 (stereo not drawn) [Example 259, 2-(2-methylallyl)-4-(1-methylpiperidin-4-yloxy)-9,10-dihydro-4H-3,10a-diaza-benzo[f]azulene-1-carbonitrile] | – | < 300 | < 300 |

Continued, values first:

| melting point [°C] | Ki (human H4 receptor [1]) [nM] | IC50 (human H4 receptor [2]) [nM] | Structure (SMILES) |
| --- | --- | --- | --- |
| – | < 30 | < 30 | Cc1c(-c2ccc(Br)cc2)nc2n1CCc1ccccc1C2OC1CCN(C)CC1 (stereo not drawn) [Example 122, 2-(4-bromophenyl)-1-methyl-4-(1-methylpiperidin-4-yloxy)-9,10-dihydro-4H-3,10a-diaza-benzo[f]azulene] |
| – | < 30 | < 30 | Cc1c(-c2ccc(N(C)C(=O)OC(C)(C)C)cc2)nc2n1CCc1ccccc1C2OC1CCN(C)CC1 (stereo not drawn) [Example 125, methyl-{4-[1-methyl-4-(1-methylpiperidin-4-yloxy)-9,10-dihydro-4H-3,10a-diaza-benzo[f]azulen-2-yl]-phenyl}carbamic acid tert-butyl ester] |
| – | < 30 | < 30 | CN1CCC(OC2c3ccccc3CCn3cc(CCCCc4ccccc4)nc32)CC1 (stereo not drawn) [Example 129, 4-(1-methylpiperidin-4-yloxy)-2-(4-phenylbutyl)-9,10-dihydro-4H-3,10a-diaza-benzo[f]azulene oxalate] |
| – | < 30 | < 30 | Cc1c(-c2ccc(NC(=O)OC(C)(C)C)cc2)nc2n1CCc1ccccc1C2OC1CCN(C)CC1 (stereo not drawn) [Example 130, {4-[1-methyl-4-(1-methylpiperidin-4-yloxy)-9,10-dihydro-4H-3,10a-diaza-benzo[f]azulen-2-yl]-phenyl}-carbamic acid tert-butyl ester] |
| – | < 30 | < 30 | CN1CCC(OC2c3ccccc3CCn3c2nc(-c2ccccc2)c3Cl)CC1 (stereo not drawn) [Example 134, 1-chloro-4-(1-methylpiperidin-4-yloxy)-2-phenyl-9,10-dihydro-4H-3,10a-diaza-benzo[f]azulene] |
| – | < 30 | < 30 | CN1CCC(OC2c3ccccc3CCn3c2nc(CCCCCc2ccccc2)c3Cl)CC1 (stereo not drawn) [Example 139, 1-chloro-4-(1-methylpiperidin-4-yloxy)-2-(5-phenylpentyl)-9,10-dihydro-4H-3,10a-diaza-benzo[f]azulene oxalate] |
| – | < 30 | < 300 | Cc1c(-c2ccc(N3CCN(C(C)(C)C)C3=O)cc2)nc2n1CCc1ccccc1C2OC1CCN(C)CC1 (stereo not drawn) [Example 140, 1-tert-butyl-3-{4-[1-methyl-4-(1-methylpiperidin-4-yloxy)-9,10-dihydro-4H-3,10a-diaza-benzo[f]azulen-2-yl]-phenyl}-imidazolidin-2-one] |
| – | < 30 | < 30 | Cc1c(-c2ccc(SC(C)(C)CCO)cc2)nc2n1CCc1ccccc1C2OC1CCN(C)CC1 (stereo not drawn) [Example 152, 3-methyl-3-{4-[1-methyl-4-(1-methylpiperidin-4-yloxy)-9,10-dihydro-4H-3,10a-diaza-benzo[f]azulen-2-yl]-phenylsulfanyl}-butan-1-ol] |
| – | < 30 | < 30 | Cc1c(-c2ccc(C=CS(C)(=O)=O)cc2)nc2n1CCc1ccccc1C2OC1CCN(C)CC1 (stereo not drawn) [Example 158, 2-[4-(2-methanesulfonyl-vinyl)-phenyl]-1-methyl-4-(1-methylpiperidin-4-yloxy)-9,10-dihydro-4H-3,10a-diaza-benzo[f]azulene] |
| – | < 30 | < 30 | Cc1c(-c2ccc(SCCN)cc2)nc2n1CCc1ccccc1C2OC1CCN(C)CC1 (stereo not drawn) [Example 161, 2-{4-[1-methyl-4-(1-methylpiperidin-4-yloxy)-9,10-dihydro-4H-3,10a-diaza-benzo[f]azulen-2-yl]-phenylsulfanyl}-ethylamine oxalate] |
| – | < 30 | < 30 | CC(=O)NCCSc1ccc(-c2nc3n(c2C)CCc2ccccc2C3OC2CCN(C)CC2)cc1 (stereo not drawn) [Example 163, N-(2-{4-[1-methyl-4-(1-methylpiperidin-4-yloxy)-9,10-dihydro-4H-3,10a-diaza-benzo[f]azulen-2-yl]-phenylsulfanyl}-ethyl)-acetamide oxalate] |
| – | < 30 | < 30 | Cc1c(-c2ccc(SCc3ccccc3)cc2)nc2n1CCc1ccccc1C2OC1CCN(C)CC1 (stereo not drawn) [Example 164, 2-(4-benzylsulfanylphenyl)-1-methyl-4-(1-methylpiperidin-4-yloxy)-9,10-dihydro-4H-3,10a-diaza-benzo[f]azulene oxalate] |
